Data as given in PMC5365648, “Pharmacokinetics of the Novel Echinocandin CD101 in Multiple Animal Species” (Antimicrobial Agents and Chemotherapy, 2017).
Starred links: 1 amine or outer side, 2 acyl side, 3 side chain; linkers in the order of their positions; H or OH if unused. Positions of bridges follow the written chain, without caps; N, C: chain ends. Non-standard residues stand in square brackets, D forms with d. Residues, ends and D or L forms follow the SMILES beside them. *: point of attachment. pTerphenylCO(4''-OnC5H11) = CCCCCOc1ccc(-c2ccc(-c3ccc(C(=O)*)cc3)cc2)cc1; Orn(4R-OH,5R-OH) = O=C([C@H](C[C@@H](O)[C@@H](O)N[*:3])N[*:1])[*:2]; hTyr(3S-OH,4S-OH) = N[C@H](C(=O)O)[C@H](O)[C@@H](O)c1ccc(O)cc1; Pro(3S-OH,4S-Me) = C[C@H]1CN[C@H](C(=O)O)[C@H]1O; Hyp = O=C(O)[C@@H]1C[C@@H](O)CN1

Columns and labels:
[1] = ref [13]; cited from earlier work
From the text: In the case of brain concentrations, there was little difference across all the collection intervals. Given the relatively low concentrations and small differences across times, measured concentrations may reflect contamination from residual whole blood during the collec ...

[2] = Mouse pharmacokinetics, i.v. bolus; conditions: in vivo, iv, male ICR (CD-1) mice, single 1 mg/kg slow i.v. bolus, plasma, LC-MS/MS, noncompartmental from mean profile, n = 3/time point
Procedure: A single 1-mg/kg dose of CD101 or anidulafungin was administered by slow i.v. bolus (∼2 min) to male ICR (CD-1) mice (n = 3/group/time point). Blood samples (via cardiac puncture) were collected for plasma processing predose and at 0.083 (5 min), 0.5, 1, 4, 8, 24, 48, and 72 h postdose. PK profiles were generated based on mean results from the three animals sampled at each time point. In another study, a single 1-, 4-, or 16-mg/kg dose of CD101 was administered by i.p. injection to female ICR (CD-1) mice (n = 3/time point/dose), and blood samples (via cardiac puncture) were drawn for plasma processing at 1, 3, 6, 12, 24, 48, 72, and 96 h postdose.
(§1) For each of the pharmacokinetic studies, whole-blood samples (K3EDTA as anticoagulant) were collected and centrifuged within 30 min of collection. The resulting plasma was harvested and stored at −20°C until analysis. Tissue samples were homogenized by a bead-based homogenizer following the addition of deionized water to excised tissue in a 2:1 (vol/wt) ratio and stored at −20°C until analysis. Prior to analysis, plasma or homogenized tissue samples were quenched with acetonitrile (3:1, acetonitrile-plasma or tissue ratio) containing an appropriate internal standard (isotopically labeled d9-CD101 [mouse and rat] or a structural analog [dog, monkey, and chimpanzee]). Plasma and tissue homogenate concentrations (quantified against calibration standards processed the same way) were determined by reverse-phase, gradient liquid chromatography with tandem mass spectrometric detection (LC-MS/MS) using an AB-SCIEX API 3200Q/4000 mass spectrometry system. Calibration standard ranges were the following: 0.400 (lower limit of quantitation, [LLOQ]) to 200 μg/ml (CD101, mouse), 0.040 (LLOQ) to 10 μg/ml (anidulafungin, mouse), 0.002 (LLOQ) to 10 μg/ml (CD101, rat), 0.005 (LLOQ) to 10 μg/ml (anidulafungin, rat), 0.050 (LLOQ) to 10 μg/ml (CD101, dog), 0.020 (LLOQ) to 10 μg/ml (anidulafungin, dog), 0.010 (LLOQ) to 10 μg/ml (CD101, monkey), 0.001 (LLOQ) to 10 μg/ml (anidulafungin, monkey), 0.015 (LLOQ) to 10 μg/ml (CD101, chimpanzee), and 0.015 (LLOQ) to 10 μg/ml (anidulafungin, chimpanzee). When necessary, dilutions with blank matrix were made for samples that quantified above the upper limit of quantitation. The methods used in the analysis were qualified as fit for purpose: calibration standards were matrix matched with the exception that human plasma calibration standards were used to analyze chimpanzee plasma samples due to the rarity of blank chimpanzee plasma, and, for each analytical batch, triplicate calibration standards were included at the beginning, approximately in the middle, and at the end of the batch. Following analysis, quantitation was carried out by a calibration curve comprising the analyte/internal standard area ratio versus concentration. Analytical batch acceptance followed the general guidance that triplicate standards/quality controls be within ±20% for accuracy (percentage of nominal concentration) and ≤20% for precision (percent coefficient of variation).
(§2) Pharmacokinetic parameters were calculated by noncompartmental analysis using Phoenix WinNonlin (version 6.3; Pharsight, Mountain View, CA) from either individual or mean (mouse) concentration-time profiles. An unpaired t test was used to compare mean exposures from male and female rats.

[3] = Cynomolgus monkey pharmacokinetics, i.v. bolus; parameters: species or system cynomolgus monkeys; conditions: in vivo, iv, cynomolgus monkeys, single 2.8 mg/kg slow i.v. bolus, plasma, LC-MS/MS, n = 3
Procedure: A single dose of 2.13 mg/kg CD101 or 2.8 mg/kg anidulafungin was administered by slow i.v. bolus (∼10 min) to cynomolgus monkeys (n = 3/group), and blood samples (via peripheral vein) were drawn for plasma processing at 0.167, 0.5, 1, 3, 8, 12, 24, 48, and 72 h postdose.
as §1, §2

[4] = Chimpanzee pharmacokinetics, i.v. infusion; type: in vivo, chimpanzees; conditions: in vivo, iv, female chimpanzees, single 1 mg/kg i.v. infusion (1 h), plasma, LC-MS/MS, noncompartmental, n = 2
Procedure: A single 1-mg/kg dose of CD101 or anidulafungin was administered by i.v. infusion (1 h) to female chimpanzees (n = 2/group), and blood samples (via peripheral vein) were drawn for plasma processing at the midpoint of infusion, at the end of infusion, at 2, 4, 8, 12, 24, 48, and 72 h postdose, and on days 5, 7, and 10 postdose.
as §1, §2

[5] = radiolabeled drug, bile duct-cannulated rats, ref [14], cited from earlier work
Procedure: In that study, which utilized radiolabeled anidulafungin in bile duct-cannulated rats, 94.8% of the radioactive dose was accounted for through 168 h (or 7 days). […] In a similar study of CD101 conducted with nonradiolabeled material, no biotransformati ...

[6] = for CD101 the effective half-life (covers the majority of the AUC), ref [10]; cited from earlier work
Procedure: The half-life of CD101 in human is about 3-fold longer (about 90 h) than that of anidulafungin (about 30 h) ([10]). It should be noted that 90 h is the effective half-life of CD101 (i.e., the half-life that covers the majority of the AUC), with a longer, later-phase half-life evident at lower concentration ...

Molecule	Tissue/plasma AUC ratio, kidney [1]	Tissue/plasma AUC ratio, liver [1]	Tissue/plasma AUC ratio, lung [1]	half-life [2]	clearance ([2]; read-out: CL (clearance))	half-life [3]	half-life [4]	clearance ([4]; read-out: CL (clearance))	radioactive dose accounted for ([5]; through 168 h (7 days))	drug-derived radioactivity recovered in bile, % of dose ([5]; through 168 h)	drug-derived radioactivity recovered in carcass, % of dose ([5]; through 168 h)	drug-derived radioactivity recovered in feces, % of dose ([5]; through 168 h)	radioactivity recovered in urine ([5]; through 168 h)	half-life in human [6]
caspofungin	5.5	10.2	1.2											
micafungin	3.2	7.8	3.6											
CCCCCOc1ccc(-c2ccc(-c3ccc(C(=O)N[C@H]4C[C@@H](O)[C@@H](O)NC(=O)[C@@H]5[C@@H](O)[C@@H](C)CN5C(=O)[C@H]([C@@H](C)O)NC(=O)[C@H]([C@H](O)[C@@H](O)c5ccc(O)cc5)NC(=O)[C@@H]5C[C@@H](O)CN5C(=O)[C@H]([C@@H](C)O)NC4=O)cc3)cc2)cc1 [anidulafungin] ({pTerphenylCO(4''-OnC5H11)}-[Orn(4R-OH,5R-OH)]T[Hyp][hTyr(3S-OH,4S-OH)]T[Pro(3S-OH,4S-Me)]; lactam 1-C)	10.7	12.4	10.4	19 h	0.21 mL/min/kg	8 h	30 h	0.42 mL/min/kg	94.8%	33.9%	40.4%	17.1%	2.94%	about 30 h
